This assay has as its target T1, nsp10–14 fusion protein (Severe acute respiratory syndrome coronavirus 2, UniProt P0DTD1).
T1 construct: gene rep; with Non-structural protein 10
The assay can be described thus: biochemical.

What is called IC50 is the concentration that inhibits the measured activity by half. Lower therefore signals greater potency.

On to `O=C1C=C2C(=CCOC2O)O1` (stereo not shown) [patulin], for which the midpoint of inhibition, the IC50, lay at 1.8 µM.

The record behind these values is article PMC8286829, “Identifying SARS-CoV-2 antiviral compounds by screening for small molecule inhibitors of nsp14/nsp10 exoribonuclease” (Biochemical Journal, 2021).
